Patent US20120309705A1, “NOVEL 3'-DEOXY-3'-METHYLIDENE-BETA-L-NUCLEOSIDES” (priority 2009, published 2012)

Legend:
[1] = Cytotoxicity in MT-4 cells (MTS); format: cell-based; details: human
Description: MT-4 cells was added to 96-well microtiter plates in a volume of 50 μl (1×10^5 cells/mL). The cell medium contains the test compounds with the concentrations ranging 0.01 μM-31 μM. The cells were incubated at 37° C. with 5% CO2. At assay termination (6 days), 20-25 μL of MTS reagent is added per well and the microtiter plates are then incubated for 4-6 hrs at 37° C. with 5% CO2. The plate was read spectrophotometrically to assess cell viability. The cytotoxicity was calculated based on the cell viability in comparison with the control.

[2] = Cytotoxicity in HepG2 cells (MTT); format: cell-based; details: human
Description: HepG2 cells were seeded on 96-well plates at a density of 1×10^4 cells/well in 100 μl DMEM supplemented with 10% FBS, 100 U/ml penicillin/streptomycin and 2 mM L-glutamine. After 20 hours of incubation at 37° C. with 5% CO2, the medium was removed and replaced with fresh medium containing test compounds with the concentrations ranging 4.7-300 μM. The cells were incubated for 24 hours at 37° C. with 5% CO2. The medium was removed and replaced with 100 μl/well MTT (Sigma) in HBSS (0.5 mg/ml). After the incubation for 2 hours on gentle shake at 37° C., 100 μl/well of MTT lysis buffer was added to the wells and plates were covered and left over night to dissolve formazan crystals. Absorbance was measured at 570-630 nm in ELISA reader. The cytotoxicity was calculated based on the cell viability in comparison with the control.

HIV-1IIIB = assay: Anti-HIV activity in MT-4 cells (cytopathic effect reduction); format: cell-based; details: Human immunodeficiency virus 1, MT4, 144 h, 6 days post-infection
Description: MT-4 cells were used for analyzing compounds of the invention for their HIV inhibitory activities. On the day preceding the assay, the cells were split 1:2 to assure they were in an exponential growth phase at the time of infection. Total cell number and percent viability determinations were performed using a hemacytometer and trypan blue exclusion. Cell viability must be greater than 95% for the cells to be utilized in the assay. The cells were re-suspended at 1×10^5 cells/mL in tissue culture medium and added to control or drug-containing 96-well microtiter plates in a volume of 50 μL. The viruses used for this assay were HIV-1IIIB. For each assay, a pre-titered aliquot of virus was removed from the freezer (−80° C.) and allowed to thaw slowly to room temperature in a biological safety cabinet. The virus was re-suspended and diluted into tissue culture medium such that the amount of virus added to each well in a volume of 50 μL was the amount determined to give between 85 to 95% cell killing at 6 days post-infection. The multiplicity of infection of these assays was approximately 0.01 and the volume added to the well of the microtiter plates was 50 μL. At assay termination (6 days post-infection), 20-25 μL of MTS reagent 3-(4,5-dimethylthiazol-2-yl)-5-(3-carboxymethoxyphenyl)-2-(4-sulfophenyl)-2H-tetrazolium (MTS; CellTiter 96 Reagent, Promega) was added per well and the microtiter plates were incubated for 4-6 hrs at 37° C., 5% CO2. Adhesive plate sealers were used in place of the lids, the sealed plate is inverted several times to mix the soluble formazan product. The plate was read spectrophotometrically at 490/650 nm with plate reader. Anti-HIV activity was calculated based on the Cytopathic Effect Reduction (%).

mutation rtA181V = mutation rtA181V (Hepatitis B virus genotype D subtype ayw, UniProt P03156, A516V); details: cited from earlier work
[3] = biological target: rtN236T in HBV polymerase (Hepatitis B virus genotype D subtype ayw, UniProt P03156, N571T); details: cited from earlier work
HBV = assay: Anti-HBV activity in HepG2.2.15 cells (HBV DNA, TaqMan PCR); format: cell-based; details: Hepatitis B virus, 144 h, 6 days, HBV DNA in supernatant, read-out: Anti-HBV activity IC50 (HepG 2215)
Description: Human hepatoma cells with HBV (HepG2.2.15 cells) were used for the analyzing compounds of the invention for their HBV inhibitory activities. HepG2.2.15 cells were plated in 96-well microtiter plates. Only the interior wells were utilized to reduce “edge effects” observed during cell culture; the exterior wells were filled with complete medium to help minimize sample evaporation. After 16-24 hours the confluent monolayer of HepG2.2.15 cells were washed and the medium was replaced with complete medium containing various concentrations of a test compound in triplicate (compounds tested at 6 concentrations). Lamivudine was used as the positive control, while media alone was added to cells as a negative control. Three days later the culture medium was replaced with fresh medium containing the appropriately diluted drug. Six days following the initial administration of the test compound, the cell culture supernatant was collected, treated with pronase and then used in a real-time quantitative TaqMan PCR assay. The PCR-amplified HBV DNA was detected in real-time by monitoring increases in fluorescence signals that result from the exonucleolytic degradation of a quenched fluorescent probe molecule that hybridized to the amplified HBV DNA. For each PCR amplification, a standard curve was simultaneously generated using dilutions of purified HBV DNA. Anti-HBV activity was calculated from the reduction in HBV DNA levels. CellTiter-96 kit (Promega) is employed to measure cell viability in the same assay to confirm that the inhibition was not due to cytotoxicity in HepG 2 cells.

[4] = tested on: mutants resistant to lamivudine; details: cited from earlier work

Chain of rtN236T in HBV polymerase (P03156 whole entry N571T): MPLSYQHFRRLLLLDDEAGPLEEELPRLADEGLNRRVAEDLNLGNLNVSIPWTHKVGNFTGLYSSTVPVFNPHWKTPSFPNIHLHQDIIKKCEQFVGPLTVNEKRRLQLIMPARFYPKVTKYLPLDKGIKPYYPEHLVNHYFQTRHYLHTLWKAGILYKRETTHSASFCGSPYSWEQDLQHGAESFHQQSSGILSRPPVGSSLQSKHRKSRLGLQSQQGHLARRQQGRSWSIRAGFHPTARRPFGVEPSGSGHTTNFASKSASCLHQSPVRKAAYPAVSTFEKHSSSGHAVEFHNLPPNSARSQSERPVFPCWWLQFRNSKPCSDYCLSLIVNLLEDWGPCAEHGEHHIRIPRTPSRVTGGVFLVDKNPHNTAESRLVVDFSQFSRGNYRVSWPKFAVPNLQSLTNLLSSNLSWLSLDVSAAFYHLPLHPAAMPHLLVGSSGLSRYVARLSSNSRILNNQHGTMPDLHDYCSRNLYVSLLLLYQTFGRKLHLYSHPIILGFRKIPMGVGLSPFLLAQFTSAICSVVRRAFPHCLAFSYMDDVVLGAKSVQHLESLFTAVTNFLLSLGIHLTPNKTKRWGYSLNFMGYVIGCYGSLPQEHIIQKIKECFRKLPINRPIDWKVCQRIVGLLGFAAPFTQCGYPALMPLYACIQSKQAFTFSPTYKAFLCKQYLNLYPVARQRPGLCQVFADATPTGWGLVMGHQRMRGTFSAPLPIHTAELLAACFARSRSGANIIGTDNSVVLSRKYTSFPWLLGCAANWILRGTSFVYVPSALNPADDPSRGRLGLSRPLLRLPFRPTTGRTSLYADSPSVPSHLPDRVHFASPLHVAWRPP
Chain of mutation rtA181V (P03156 whole entry A516V): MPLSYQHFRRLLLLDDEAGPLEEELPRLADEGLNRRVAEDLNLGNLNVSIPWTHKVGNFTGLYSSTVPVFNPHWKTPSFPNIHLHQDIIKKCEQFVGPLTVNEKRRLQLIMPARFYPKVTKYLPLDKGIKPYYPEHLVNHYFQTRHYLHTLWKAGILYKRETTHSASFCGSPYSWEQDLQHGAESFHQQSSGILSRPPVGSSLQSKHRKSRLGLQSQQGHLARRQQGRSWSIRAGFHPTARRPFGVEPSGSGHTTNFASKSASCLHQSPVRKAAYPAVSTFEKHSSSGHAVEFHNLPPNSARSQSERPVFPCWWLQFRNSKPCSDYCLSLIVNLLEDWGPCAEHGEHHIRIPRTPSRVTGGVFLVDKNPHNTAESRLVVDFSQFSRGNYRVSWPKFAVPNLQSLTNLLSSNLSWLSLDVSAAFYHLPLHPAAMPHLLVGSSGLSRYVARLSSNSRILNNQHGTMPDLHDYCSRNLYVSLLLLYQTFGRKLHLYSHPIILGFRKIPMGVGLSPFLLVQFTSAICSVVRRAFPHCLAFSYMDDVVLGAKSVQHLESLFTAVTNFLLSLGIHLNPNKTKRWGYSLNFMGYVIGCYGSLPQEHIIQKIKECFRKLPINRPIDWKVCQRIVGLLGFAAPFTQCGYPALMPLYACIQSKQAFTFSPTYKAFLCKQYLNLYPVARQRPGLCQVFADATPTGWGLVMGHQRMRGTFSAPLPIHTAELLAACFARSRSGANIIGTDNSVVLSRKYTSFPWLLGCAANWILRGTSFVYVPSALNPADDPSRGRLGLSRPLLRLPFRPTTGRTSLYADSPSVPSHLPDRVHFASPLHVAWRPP

Row | IC50 (HIV-1IIIB) [µM] | SMILES | CC50 at 6 days [1] [µM] | CC50 at 24 h [2] [µM] | activity loss (mutation rtA181V) | loss of susceptibility [3] | IC50 (HBV) [µM] | cross-resistance of lamivudine-resistant mutants [4]
1 | > 32 | C=C1[C@H](CO)O[C@H](n2ccc(N)nc2=O)[C@H]1O [Compound 17, 1-(3-deoxy-3-methylidene-β-L-pentoribofuranosyl)cytosine] | > 32 | > 300 |  |  |  | 
2 |  | Nc1ncnc2c1ncn2CCOCP(=O)(O)O [adefovir] |  |  | about 33 fold | about 10 fold |  | 
3 |  | Cc1cn([C@@H]2C[C@@H](O)[C@H](CO)O2)c(=O)[nH]c1=O [telbivudine] |  |  |  |  |  | cross-resistance
4 | > 32 | C=C1[C@H](CO)O[C@H](n2ccc(N)nc2=O)[C@@H]1F [Compound 47, 1-[2-deoxy-2-(R)-fluoro-3-deoxy-3-methylidene-β-L-pentofuranosyl]cytosine] | > 32 | > 300 |  |  |  | 
5 | > 32 | C=C1[C@H](CO)O[C@H](n2ccc(N)nc2=O)[C@@H]1O [Compound 28, 1-(3-deoxy-3-methylidene-β-L-arabinopentofuranosyl)cytosine] | > 32 | > 300 |  |  |  | 
6 | > 32 | C=C1[C@H](CO)O[C@H](n2ccc(N)nc2=O)[C@H]1F [Compound 37, 1-[2-deoxy-2-(S)-fluoro-3-deoxy-3-methylidene-β-L-pentofuranosyl]cytosine] | > 32 | > 300 |  |  |  | 
7 |  | C=C1[C@H](CO)[C@@H](O)C[C@@H]1n1cnc2c(=O)[nH]c(N)nc21 [entecavir] |  |  |  |  |  | cross-resistance
8 | > 32 | C=C1C[C@@H](n2cnc3c(=O)[nH]c(N)nc32)O[C@H]1CO [Compound 75, 9-(2,3-dideoxyl-3-methylidene-β-L-pentofuranosyl)guanine] | > 32 |  |  |  |  | 
9 |  | C=C1[C@H](CO)O[C@H](n2ccc(N)nc2=O)[C@H]1C [Compound 57, 4-Amino-1-[(2S,3S,5R)-5-(hydroxymethyl)-3-methyl-4-methylenetetrahydrofuran-2-yl]pyrimidin-2(1H)-one] |  | > 300 |  |  |  | 
10 |  | C=C1C[C@@H](n2cnc3c(N)ncnc32)O[C@H]1CO [Compound 71, 9-(2,3-dideoxyl-3-methylidene-β-L-pentofuranosyl)adenine] |  | > 300 |  |  | < 1 | 
11 |  | C=C1C[C@@H](n2cc(F)c(N)nc2=O)O[C@H]1CO [Compound 66, 1-(2,3-dideoxyl-3-methylidene-β-L-pentofuranosyl)-5-fluorocytosine] |  | > 300 |  |  | < 1 | 

Row | SMILES | IC50 (HIV-1IIIB) [µM] | CC50 at 6 days [1] [µM] | CC50 at 24 h [2] [µM] | activity loss (mutation rtA181V) | loss of susceptibility [3] | IC50 (HBV) [µM] | cross-resistance of lamivudine-resistant mutants [4]
12 | C=C1C[C@@H](n2ccc(N)nc2=O)O[C@H]1CO [Compound 10, 1-(2,3-dideoxyl-3-methylidene-β-L-pentofuranosyl)cytosine] | 1 to 32 | > 32 | > 300 |  |  | < 1 | 
13 | C=C1C[C@@H](n2ccc(=O)[nH]c2=O)O[C@H]1CO [Compound 8, 1-(2,3-dideoxyl-3-methylidene-β-L-pentofuranosyl)uracil] | > 32 | > 32 | > 32 |  |  | > 32 | 
14 | C=C1C[C@@H](n2cc(C)c(=O)[nH]c2=O)O[C@H]1CO [Compound 26, 1-(2,3-dideoxy-3-methylidene-β-L-pentofuranosyl)thymine] | > 32 | > 32 | > 300 |  |  | < 1 | 
